Data on 1 substance can be found in patent US6287813A, “Antibiotic-based gene regulation system” (Cistronics Cell Technology GmbH, priority 1999, dated 2001).

The data set deals with T1, PIT/PPIR system (Streptomyces coelicolor, UniProt Q9ADN3).
T1 construct: pMF156/pTWIN in CHO cells, PPIR-SEAP or GFP reporter
T1 sequence (Q9ADN3 1-252): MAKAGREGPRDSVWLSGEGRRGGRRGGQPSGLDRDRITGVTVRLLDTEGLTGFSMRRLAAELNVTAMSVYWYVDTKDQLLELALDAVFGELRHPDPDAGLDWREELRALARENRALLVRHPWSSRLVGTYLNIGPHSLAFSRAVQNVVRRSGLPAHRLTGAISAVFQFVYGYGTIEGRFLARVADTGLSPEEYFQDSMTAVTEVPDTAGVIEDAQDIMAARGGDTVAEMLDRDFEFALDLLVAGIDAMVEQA
The data set is described as follows: SEAP reporter assay, stable CHO-PIT1/CHO-PIT2 transiently transfected with pMF172. In kind it is cell-based. On the procedure:
Chinese hamster ovary cells (CHO-K1, ATCC: CCL 61), Baby hamster kidney cells (BHK-21, ATCC: CRL-8544), and HeLa cells (ATCC: CRL-7923) as well as stable cell lines CHO-PIT1, CHO-PIT2, CHO-TWIN195, CHO-TWIN1108 and CHO-PIT1-SEAP were cultured as described before (Fussenegger et al., 1998, Nat. Biotechnol. 16,468-472) in the presence of appropriate antibiotics: G418 400 μg/ml; zeocin 100 μg/ml. Optimized CaPO4 protocols were used for high efficiency transient transfection of all cell lines (id). Transient transfected cells were routinely analyzed after 48 h for GFP or SEAP expression using fluorescence microscopy and p-nitrophenolphosphate-based light absorbance timecourse, respectively, as described before (Fussenegger et al., 1998, Nat. Biotechnol. 16, 468-472; Berger et al., 1988, Gene 66, 1-10 b). For construction of stable CHO-PIT and CHO-TWIN cell lines, CHO-K1 was cotransfected either with pMF156 or pTWIN1 and pSV2neo carrying the G418 resistance gene. CHO-PIT1-SEAP was constructed by cotransfection of pMF172 and pZeoSV2 (Invitrogen). For assessment of dose-response characteristics of PPIR -regulated gene expression, CHO-PIT1-SEAP were cultured at cell densities of 150,000/ml for 48 at various PI concentrations. The mixed populations were cloned using FACS-mediated single-cell-sorting (FACStar^Plus; Beckton Dickinson). Gel retardation assay were performed as described (Salah-Bey et al., 1995, supra) using Pip purified from an overproducing strain of E. coli. Pip (0.02 pmol) was titrated with a range of antibiotic concentrations in a reaction volume of 20 μl. Protein solutions were pre-incubated at room temperature for 15 min. in the absence or presence of PI or its derivative quinupristin in a buffer containing 10 mM Tris (pH 7.8), 10 mM MgCl2, 300 mM NaCl, 2 mM DTT and 10% glycerol. An EcoRI-HindII PPTR fragment (0.02 pmol) containing three Pip binding sites (radiolabelled using α-^32 P)dATP was added and incubated for 15 min. To minimize nonspecific protein binding and increase protein stability, 2 μg of poly dIdC and 20 μg BSA were included in the incubation mix. Protein-DNA complexes were separated on 5% polyacrylamide,TBE gels and visualized by autoradiography.
Five different sources of pristinamycin were used: The two therapeutic forms Pyostacin™ and Synercid™, pristinamycin discs, and the single compounds pristinamycin I (PI) and pristinamycin II (PII). Pyostacin™ pills (500 mg) were ground in a mortar and solubilized in DMSO or water at a stock concentration of 50 mg/ml. Synercid™ (RP 59500; Lot Nr. CB06253) was provided by Aventis in injection-ready vials containing 500 mg lyophilized antibiotic which was reconstituted in 5 ml of 5% glucose solution and frozen at -20° C. Individual pristinamycin compounds PI and PII (identical to virginiamycin M1 (VM1); Sigma ref. V2753) were solubilized in DMSO at a concentration of 50 mg/ml and kept at -20° C. Antibiotic discs containing 15 μg pristinamycin or virginiamycin (bioMerieux, ref. 54552; bioMerieux, ref. 54612) were soaked in 1 ml cell culture medium at 4i C for up to 24 h. Virginiamycin consists of virginiamnycin S1 (VS1), the PI analogue, and virginiamycin M1, which is identical in structure to PII (Barri re et al., 1994, supra). 2 μg/ml of streptogramin B was routinely used for regulation studies in cell culture. The concentration of individual streptogramin components was calculated based on their fixed 70:30 ratio (w/w; PII/VM1 /dalfopristin: PI/VS1 /quinupristin). For control experiments TET and doxycycline (DOX) were used either as discs (30 μg/disc, bioM.quadrature.rieux ref. 54882 (TET) and ref. 54172 (DOX)) or as powder (Sigma refs. T3383 and D9891).
Table 4: Pristinamycin I- (PI) dependent SEAP production of PIT- (PI-dependent transactivator) expressing stable cell lines CHO-PIT1 and CHO-PIT2 transiently transfected with the SEAP-encoding, PI-responsive reporter plasmid pMF172.
Table 5: Regulation potential of different streptogramins. […]
(In general: A reporter such as luciferase makes a cellular process visible.)

pristinamycin I [PI]: the “Induction factor (ratio of SEAP activity without PI to SEAP activity with PI)” value by setting is: (CHO-PIT1) 13; (CHO-PIT2) 8. In addition, the “SEAP Production (%)” value (CHO-PIT1 + pMF172, 48 h, 2 μg/ml of group B component, no streptogramin = 100) stood at 8.06 ± 0.05%; the “SEAP Production (%)” value (CHO-PIT1 + pMF172, +PI 2 μg/ml, -PI = 100) came to 7.50 ± 2.32%; the “SEAP Production (%)” value (CHO-PIT2 + pMF172, +PI 2 μg/ml, -PI = 100) amounted to 12.7 ± 3.57%. Also, where the note is “CHO-PIT derivatives, repeated cycles of addition and withdrawal”, the “Reversibility of PI-responsive SEAP regulation” value is reported as “fully reversible”.
